Results published in the supplement of paper PMC10883282.
± gives the standard deviation of the averaged measurements.

Test system: VA-ES-BJ
Assay: relative viability vs DMSO control (72 h) (fraction); higher = more viable cells
Summary of the method: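 After seeding at densities set for 80–90% confluence in 384-well plates, sarcoma cell lines waited 24 h before 2.5 µl of serially diluted compound was added. Source plates held 10 mM down to 0.0002 mM. Plates were incubated 72 h at 37 °C with 5% CO2, with 0.1% DMSO vehicle and a 5 µM positive control, and relative viability was taken from ATPLite as percent growth averaged over up to triplicate wells, with 1 set as full and 0 as none.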

| SMILES | relative viability (0.00017 µM) | relative viability (0.00051 µM) | relative viability (0.00152 µM) | relative viability (0.00457 µM) | relative viability (0.01372 µM) | relative viability (0.04115 µM) | relative viability (0.1235 µM) | relative viability (0.3704 µM) | relative viability (1.111 µM) | relative viability (3.333 µM) | relative viability (10 µM) |
| --- | --- | --- | --- | --- | --- | --- | --- | --- | --- | --- | --- |
| CO[C@H]1C[C@@H]2CC[C@@H](C)[C@@](O)(O2)C(=O)C(=O)N2CCCC[C@H]2C(=O)O[C@H]([C@H](C)C[C@@H]2CC[C@@H](OP(C)(C)=O)[C@H](OC)C2)CC(=O)[C@H](C)/C=C(\C)[C@@H](O)[C@@H](OC)C(=O)[C@H](C)C[C@H](C)/C=C/C=C/C=C/1C [Ridaforolimus] | 0.97 ± 0.051 | 0.889 ± 0.031 | 0.664 ± 0.016 | 0.602 ± 0.03 | 0.538 ± 0.018 | 0.509 ± 0.025 | 0.487 ± 0.03 | 0.459 ± 0.0073 | 0.48 ± 0.014 | 0.458 ± 0.026 | 0.45 ± 0.0084 |
| O=C(Cc1ccc(-c2ccc(OCCN3CCOCC3)cc2)cn1)NCc1ccccc1 [KX2-391] | 1.09 ± 0.045 | 1.06 ± 0.043 | 1.06 ± 0.021 | 1.05 ± 0.044 | 0.96 ± 0.032 | 0.584 ± 0.026 | 0.385 ± 0.021 | 0.368 ± 0.021 | 0.314 ± 0.015 | 0.29 ± 0.017 | 0.309 ± 0.018 |
| COc1cc2nccc(Oc3ccc(NC(=O)Nc4cc(C)on4)c(Cl)c3)c2cc1OC [Tivozanib] | 1.04 ± 0.022 | 1.07 ± 0.017 | 1.05 ± 0.019 | 1.05 ± 0.025 | 1.05 ± 0.026 | 1.05 ± 0.028 | 1.1 ± 0.04 | 1.14 ± 0.048 | 1.16 ± 0.1 | 1.16 ± 0.12 | 0.812 ± 0.065 |
| CCc1cc2c(cc1N1CCC(N3CCOCC3)CC1)C(C)(C)c1[nH]c3cc(C#N)ccc3c1C2=O [Alectinib] | 1.03 ± 0.047 | 1.07 ± 0.042 | 1.04 ± 0.057 | 1.04 ± 0.027 | 1.02 ± 0.041 | 1.06 ± 0.048 | 1.04 ± 0.0046 | 0.891 ± 0.27 | 0.912 ± 0.26 | 0.941 ± 0.24 | 0.905 ± 0.25 |
| COCc1c(-c2cc3cc(C)cc(OC)c3s2)c2c(N)ncnn2c1CN1CCNC(=O)C1 [Rogaratinib] | 1.074 ± 0.0046 | 1.07 ± 0.037 | 1.05 ± 0.036 | 1.05 ± 0.021 | 1.06 ± 0.021 | 1.03 ± 0.042 | 1.04 ± 0.081 | 1.02 ± 0.075 | 1.02 ± 0.063 | 0.908 ± 0.087 | 0.568 ± 0.031 |
| CN1CCC(COc2cnc(-c3cccc(Cn4nc(-c5cccc(C#N)c5)ccc4=O)c3)nc2)CC1 [Tepotinib] | 1.07 ± 0.019 | 1.06 ± 0.021 | 1.02 ± 0.033 | 1.05 ± 0.044 | 1.02 ± 0.023 | 0.943 ± 0.044 | 0.869 ± 0.021 | 0.866 ± 0.04 | 0.869 ± 0.067 | 0.845 ± 0.045 | 0.869 ± 0.041 |
| Cc1cnc(Nc2ccc(OCCN3CCCC3)cc2)nc1Nc1cccc(S(=O)(=O)NC(C)(C)C)c1 [Fedratinib] | 1.06 ± 0.042 | 1.08 ± 0.013 | 1.03 ± 0.023 | 1.05 ± 0.021 | 1.04 ± 0.013 | 1 ± 0.037 | 1.02 ± 0.032 | 0.781 ± 0.018 | 0.403 ± 0.019 | 0.152 ± 0.0076 | -0.0115 ± 0.0047 |
| Cn1cnc2c(F)c(Nc3ccc(Br)cc3F)c(C(=O)NOCCO)cc21 [Binimetinib] | 1.06 ± 0.011 | 1.09 ± 0.032 | 1.07 ± 0.037 | 1.02 ± 0.028 | 1.02 ± 0.044 | 0.966 ± 0.027 | 0.946 ± 0.071 | 0.921 ± 0.069 | 0.879 ± 0.046 | 0.794 ± 0.041 | 0.689 ± 0.058 |
| C[C@@H]1CCN(C(=O)CC#N)C[C@@H]1N(C)c1ncnc2[nH]ccc12 [Tofacitinib] | 1.052 ± 0.0034 | 1.07 ± 0.014 | 1.02 ± 0.037 | 1.06 ± 0.039 | 1.02 ± 0.035 | 1.02 ± 0.026 | 1.01 ± 0.019 | 1.01 ± 0.017 | 1 ± 0.036 | 0.9697 ± 0.0069 | 0.931 ± 0.018 |
| Nc1cc(C(F)(F)F)c(-c2cc(N3CCOCC3)nc(N3CCOCC3)n2)cn1 [Buparlisib] | 1.01 ± 0.043 | 1 ± 0.053 | 0.999 ± 0.027 | 1.01 ± 0.032 | 0.997 ± 0.035 | 0.983 ± 0.055 | 0.875 ± 0.058 | 0.663 ± 0.018 | 0.316 ± 0.0056 | 0.189 ± 0.0041 | 0.1818 ± 0.0013 |
| Cn1cc(-c2cc3c(N4CCN(c5ncc([C@@](C)(N)c6ccc(F)cc6)cn5)CC4)ncnn3c2)cn1 [Avapritinib] | 1.02 ± 0.013 | 1.01 ± 0.025 | 1 ± 0.013 | 1.01 ± 0.03 | 0.998 ± 0.057 | 0.993 ± 0.023 | 0.971 ± 0.039 | 0.98 ± 0.031 | 0.975 ± 0.011 | 0.956 ± 0.034 | 0.979 ± 0.028 |
| C=CC(=O)N1CCC([C@@H]2CCNc3c(C(N)=O)c(-c4ccc(Oc5ccccc5)cc4)nn32)CC1 [Zanubrutinib] | 1.02 ± 0.011 | 1.01 ± 0.012 | 1.01 ± 0.03 | 0.996 ± 0.039 | 0.982 ± 0.029 | 1.04 ± 0.028 | 0.997 ± 0.047 | 0.998 ± 0.054 | 0.95 ± 0.025 | 0.912 ± 0.048 | 0.836 ± 0.013 |
| CCCS(=O)(=O)Nc1ccc(F)c(C(=O)c2c[nH]c3ncc(-c4ccc(Cl)cc4)cc23)c1F [Vemurafenib] | 1.09 ± 0.048 | 1.08 ± 0.058 | 1.04 ± 0.063 | 1.06 ± 0.039 | 1.074 ± 0.0083 | 1.06 ± 0.042 | 1.09 ± 0.017 | 1.12 ± 0.056 | 1.12 ± 0.043 | 1.02 ± 0.042 | 0.769 ± 0.03 |
| COc1cc2c(Oc3ccc4[nH]c(C)cc4c3F)ncnc2cc1OCCCN1CCCC1 [Cediranib] | 1.05 ± 0.045 | 1.03 ± 0.055 | 1.04 ± 0.048 | 1.06 ± 0.038 | 1.04 ± 0.029 | 1.07 ± 0.067 | 1.09 ± 0.068 | 1.13 ± 0.065 | 1.15 ± 0.051 | 1.15 ± 0.022 | 1.13 ± 0.01 |
| CC[C@H](Nc1ncnc2[nH]cnc12)c1nc2cccc(F)c2c(=O)n1-c1ccccc1 [Idelalisib] | 1.12 ± 0.01 | 1.12 ± 0.052 | 1.09 ± 0.015 | 1.09 ± 0.071 | 1.06 ± 0.03 | 1.07 ± 0.041 | 1.05 ± 0.026 | 1.03 ± 0.053 | 0.931 ± 0.041 | 0.872 ± 0.035 | 0.705 ± 0.038 |
| Cc1cc(Nc2ncnc3ccc(NC4=NC(C)(C)CO4)cc23)ccc1Oc1ccn2ncnc2c1 [Tucatinib] | 1.09 ± 0.036 | 1.058 ± 0.0029 | 1.07 ± 0.032 | 1.04 ± 0.015 | 1.02 ± 0.02 | 1.03 ± 0.043 | 1.02 ± 0.089 | 1.01 ± 0.058 | 1.03 ± 0.023 | 1.03 ± 0.049 | 1.01 ± 0.023 |
| N#CC[C@H](C1CCCC1)n1cc(-c2ncnc3[nH]ccc23)cn1 [Ruxolitinib] | 1.03 ± 0.03 | 1.05 ± 0.026 | 1.002 ± 0.01 | 1.006 ± 0.0095 | 1.02 ± 0.014 | 1.03 ± 0.024 | 0.987 ± 0.014 | 0.985 ± 0.025 | 0.969 ± 0.015 | 1 ± 0.03 | 0.8995 ± 0.0059 |
| Cc1ccc(F)c(NC(=O)Nc2ccc(-c3cccc4[nH]nc(N)c34)cc2)c1 [Linifanib] | 1.05 ± 0.022 | 1.07 ± 0.041 | 1.06 ± 0.03 | 1.07 ± 0.056 | 1.05 ± 0.025 | 1.08 ± 0.059 | 1.07 ± 0.046 | 1.06 ± 0.056 | 1.11 ± 0.063 | 1.11 ± 0.035 | 1.03 ± 0.047 |
| Cc1nc(NC(=O)N2CCC[C@H]2C(N)=O)sc1-c1ccnc(C(C)(C)C(F)(F)F)c1 [Alpelisib] | 1.062 ± 0.0069 | 1.03 ± 0.048 | 1.03 ± 0.022 | 0.992 ± 0.054 | 0.981 ± 0.04 | 0.94 ± 0.045 | 0.924 ± 0.045 | 0.833 ± 0.019 | 0.741 ± 0.021 | 0.61 ± 0.01 | 0.378 ± 0.011 |
